≈ marks a conversion by molar mass, not a printed value. Where “and” joins values, the source holds several entries; their conditions need not be identical. Equal values may be shown once. Read-outs that look alike come from different tables or passages of the source. Starred links: 1 amine or outer side, 2 acyl side, 3 side chain; linkers in the order of their positions; H or OH if unused. Positions of bridges follow the written chain, without caps; N, C: chain ends. Non-standard residues stand in square brackets, D forms with d. Residues, ends and D or L forms follow the SMILES beside them. No end group written: not given here. *: point of attachment. hTyr(3S-OH,4S-OH,3'-OSO3H) = N[C@H](C(=O)O)[C@H](O)[C@@H](O)c1ccc(O)c(OS(=O)(=O)O)c1; pTerphenylCO(4''-OnC5H11) = CCCCCOc1ccc(-c2ccc(-c3ccc(C(=O)*)cc3)cc2)cc1; Orn(4R-OH,5R-OH) = O=C([C@H](C[C@@H](O)[C@@H](O)N[*:3])N[*:1])[*:2]; hTyr(3S-OH,4S-OH) = N[C@H](C(=O)O)[C@H](O)[C@@H](O)c1ccc(O)cc1; Pro(3S-OH,4S-Me) = C[C@H]1CN[C@H](C(=O)O)[C@H]1O; X1 = CCCCCOc1ccc(-c2cc(-c3ccc(C(=O)*)cc3)no2)cc1; Gln(3R-OH) = NC(=O)C[C@@H](O)[C@H](N)C(=O)O; Hyp = O=C(O)[C@@H]1C[C@@H](O)CN1
Key:
human red blood cells = test system: human red blood cells; parameters: method as in PMID 36557160; conditions: cited from earlier work
C. albicans 9.1 = type: cell-based; conditions: 9.1, 24 h
Excerpt: (§1) Antifungal activity of the recombinant peptides was studied against collection strains of Candida albicans ATCC 18804 and ATCC 10231, clinical isolates of C. albicans v47a3 and 9.1, clinical isolates of C. krusei 225/2, C. glabrata 252/2 and C. tropicalis v13a4/2 isolated from the patients with human immunodeficiency virus (HIV) infection and provided by the G.N. Gabrichevsky Research Institute for Epidemiology and Microbiology (Moscow, Russia). C. albicans ATCC 18804 and v47a3, C. krusei 225/2, C. glabrata 252/2 and C. tropicalis v13a4/2 were characterized as sensitive to antimycotics yeast strains, while C. albicans ATCC 10231 and 9.1 were resistant to azoles. C. albicans ATCC 10231 was also resistant to anidulafungin (Supplementary Materials, Tables S4 and S6).
(§2) The study was carried out in Sabouraud broth using 96-well microplates. Yeast cells at a concentration of 4 × 10^4 cells/mL were mixed with equal volumes of two-fold dilutions of peptides in water, starting with a maximum concentration of 32 μM. Control wells without peptides were also used. Microplates were incubated at 30 °C for 24 h after that yeast growth was estimated using an inverted microscope and by measuring the optical density at 630 nm. MIC was defined as minimal peptide concentration, inhibiting fungal growth by 100%. To determine whether the peptides act fungicidal or fungistatic, the contents of the wells of the plate with peptide concentrations equal to MIC and higher were sown on Sabouraud agar and incubated at 37 °C for 24 h. MFC was defined as minimal peptide concentration, ensuring the death of all fungal cells. FI was defined as the fungicide index, equal to the MFC/MIC ratio and indicating the severity of the fungicidal action of the peptide. […] Either 150 mM NaCl, 1.25 mM MgCl2, 1.25 mM CaCl2 or 10% fetal bovine serum (FBS) was added to Sabouraud broth to estimate the influence of various salts and serum on the antifungal activity of peptides tested.

C. albicans v47a = type: cell-based; conditions: 24 h
Excerpt: as §1, §2

C. krusei 225/2 = type: cell-based; conditions: 225/2, 24 h
Excerpt: as §1, §2

C. albicans ATCC 10231 = type: cell-based; conditions: ATCC 10231, 24 h
Excerpt: as §1, §2

C. tropicalis v13a4/2 = type: cell-based; conditions: v13a4/2, 24 h
Excerpt: as §1, §2

C. glabrata 252/2 = type: cell-based; conditions: 252/2, 24 h
Excerpt: as §1, §2

C. albicans ATCC 18804 = assay: microbe, parasite or virus in culture; type: cell-based
Excerpt: as §1, §2

[1] = not given; remark: listed apart in the source
pepsin = pepsin (Sus scrofa, UniProt P00791); conditions: 50 ng pepsin per 1 μg peptide, 0.05 M HCl pH~1.3, peptide 0.5 mg/mL, 37 °C, after 2 h, SDS-PAGE densitometry
Sequence of pepsin (P00791 60-385): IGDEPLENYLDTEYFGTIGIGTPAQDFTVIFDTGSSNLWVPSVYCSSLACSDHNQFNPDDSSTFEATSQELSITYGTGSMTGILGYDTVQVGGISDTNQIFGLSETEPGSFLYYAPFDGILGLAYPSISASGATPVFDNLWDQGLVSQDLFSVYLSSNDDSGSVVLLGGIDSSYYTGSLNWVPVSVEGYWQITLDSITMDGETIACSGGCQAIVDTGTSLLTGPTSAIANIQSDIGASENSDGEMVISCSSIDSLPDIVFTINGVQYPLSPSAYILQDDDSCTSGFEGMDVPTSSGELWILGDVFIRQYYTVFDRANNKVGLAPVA
Procedure: Gastric digestion was performed using 50 ng of pepsin per 1 μg of acidocin A in 0.05 M HCl (pH~1.3). […] The concentration of the peptide was 0.5 mg/mL in both cases. The reaction mixtures were incubated at 37 °C for 2 h and the aliquots were taken at 5 min, 30 min and 2 h after the start of incubation, immediately mixed with the sample buffer containing 4% SDS, and heated for 5 min at 80 °C to ensure protease inactivation. The degree of proteolysis was monitored by Laemmli SDS-PAGE in 18%T 3%C polyacrylamide gels by applying a volume of the mixture containing 1.5 μg of the peptide per lane.

Candida albicans 9.1 = assay: Sensitivity of clinical isolates to conventional antimycotics (broth dilution MIC); conditions: Candida albicans, 9.1, read-out: MICs
Candida albicans v47a3 = assay: as above; conditions: V47A3, read-out: MICs

KTYYGTNGVHCTKKSLWGKVRLKNVIPGTLCRKQSLPIKQDLKILLGWATGAFGKTFH (disulfide 11-31) [Acidocin A]
HC10 (human red blood cells): > 128 µM | β-Turn (cited from earlier work): 20.3% and 19.2% and 22.6% | MFC (C. albicans 9.1): 16 µM | MIC (C. albicans 9.1): 4 µM | MFC (C. albicans v47a): 4 µM | MIC (C. albicans v47a): 4 µM | MFC (C. krusei 225/2): 8 µM | MIC (C. krusei 225/2): 8 µM | MFC (C. albicans ATCC 10231): 16 µM | MIC (C. albicans ATCC 10231): 8 µM | MFC (C. tropicalis v13a4/2): 4 µM | MIC (C. tropicalis v13a4/2): 4 µM | MFC (C. glabrata 252/2): 4 µM | MIC (C. glabrata 252/2): 4 µM | MFC (C. albicans ATCC 18804; ATCC 18804, 24 h): 8 µM | MIC (C. albicans ATCC 18804; ATCC 18804, 24 h): 4 µM | Random ([1]; cited from earlier work): 28.6% and 37.9% and 28.8% | resistance to pepsin (amount remaining) (pepsin): more than half of the initial amount was retained

CC[C@H](C)C[C@H](C)CCCCCCCCC(=O)N[C@H]1C[C@@H](O)[C@@H](NCCN)NC(=O)[C@@H]2[C@@H](O)CCN2C(=O)[C@H]([C@H](O)CCN)NC(=O)[C@H]([C@H](O)[C@@H](O)c2ccc(O)cc2)NC(=O)[C@@H]2C[C@@H](O)CN2C(=O)[C@H]([C@@H](C)O)NC1=O [Caspofungin]
MIC (Candida albicans 9.1): 0.12 µg/mL (≈ 0.11 µM) | MIC (Candida albicans v47a3): 0.06 µg/mL (≈ 0.0549 µM)

C[C@@H](c1ncncc1F)[C@](O)(Cn1cncn1)c1ccc(F)cc1F [Voriconazole]
MIC (Candida albicans 9.1): 8 µg/mL (≈ 22.9 µM) | MIC (Candida albicans v47a3): 0.5 µg/mL (≈ 1.43 µM)

C[C@@H]1[C@H](O)[C@@H](C)/C=C/C=C/C=C/C=C/C=C/C=C/C=C/[C@H](O[C@@H]2O[C@H](C)[C@@H](O)[C@H](N)[C@@H]2O)C[C@@H]2O[C@](O)(C[C@@H](O)C[C@@H](O)[C@H](O)CC[C@@H](O)C[C@@H](O)CC(=O)O[C@H]1C)C[C@H](O)[C@H]2C(=O)O [Amphotericin B, reference compound]
MIC (Candida albicans 9.1): 1 µg/mL (≈ 1.08 µM) | MIC (Candida albicans v47a3): 0.5 µg/mL (≈ 0.541 µM) | concentration with fungicidal effect (2 × MIC) (C. albicans ATCC 18804; C. albicans ATCC 18804, antifungal activity assay): 1 µg/mL | MIC (C. albicans ATCC 18804; Candida albicans, ATCC18804, C. albicans ATCC 18804, wells previously blocked with 0.1% BSA, read-out: MIC): 0.5 µg/mL

CCCCCOc1ccc(-c2cc(-c3ccc(C(=O)N[C@H]4C[C@@H](O)[C@@H](O)NC(=O)[C@@H]5[C@@H](O)[C@@H](C)CN5C(=O)[C@H]([C@H](O)CC(N)=O)NC(=O)[C@H]([C@H](O)[C@@H](O)c5ccc(O)c(OS(=O)(=O)O)c5)NC(=O)[C@@H]5C[C@@H](O)CN5C(=O)[C@H]([C@@H](C)O)NC4=O)cc3)no2)cc1 [Micafungin] (X1-[Orn(4R-OH,5R-OH)]T[Hyp][hTyr(3S-OH,4S-OH,3'-OSO3H)][Gln(3R-OH)][Pro(3S-OH,4S-Me)]; lactam 1-C)
MIC (Candida albicans 9.1): 0.015 µg/mL (≈ 0.0118 µM) | MIC (Candida albicans v47a3): 0.008 µg/mL (≈ 0.0063 µM)

CCCCCOc1ccc(-c2ccc(-c3ccc(C(=O)N[C@H]4C[C@@H](O)[C@@H](O)NC(=O)[C@@H]5[C@@H](O)[C@@H](C)CN5C(=O)[C@H]([C@@H](C)O)NC(=O)[C@H]([C@H](O)[C@@H](O)c5ccc(O)cc5)NC(=O)[C@@H]5C[C@@H](O)CN5C(=O)[C@H]([C@@H](C)O)NC4=O)cc3)cc2)cc1 [Anidulafungin] ({pTerphenylCO(4''-OnC5H11)}-[Orn(4R-OH,5R-OH)]T[Hyp][hTyr(3S-OH,4S-OH)]T[Pro(3S-OH,4S-Me)]; lactam 1-C)
MIC (Candida albicans 9.1): 0.06 µg/mL (≈ 0.0526 µM) | MIC (Candida albicans v47a3): 0.03 µg/mL (≈ 0.0263 µM)

CC[C@@H]([C@H](C)O)n1ncn(-c2ccc(N3CCN(c4ccc(OC[C@@H]5CO[C@@](Cn6cncn6)(c6ccc(F)cc6F)C5)cc4)CC3)cc2)c1=O [Posaconazole]
MIC (Candida albicans 9.1): 8 µg/mL (≈ 11.4 µM) | MIC (Candida albicans v47a3): 0.12 µg/mL (≈ 0.171 µM)

CCC(C)n1ncn(-c2ccc(N3CCN(c4ccc(OCC5COC(Cn6cncn6)(c6ccc(Cl)cc6Cl)O5)cc4)CC3)cc2)c1=O (stereo not drawn) [Itraconazole]
MIC (Candida albicans 9.1): 16 µg/mL (≈ 22.7 µM) | MIC (Candida albicans v47a3): 0.12 µg/mL (≈ 0.17 µM)

Nc1[nH]c(=O)ncc1F [Flucytosine]
MIC (Candida albicans 9.1): 0.06 µg/mL (≈ 0.465 µM) | MIC (Candida albicans v47a3): 0.06 µg/mL (≈ 0.465 µM)

OC(Cn1cncn1)(Cn1cncn1)c1ccc(F)cc1F [Fluconazole]
MIC (Candida albicans 9.1): 256 µg/mL (≈ 836 µM) | MIC (Candida albicans v47a3): 8 µg/mL (≈ 26.1 µM)

KTHYPTNAWKSLWKGFWESLRYTDGF [Acidocin 8912]
β-Turn: 23.9% and 17% and 22.4% | MFC (C. albicans 9.1): 32 µM | MIC (C. albicans 9.1): 16 µM | MFC (C. albicans v47a): >32 µM | MIC (C. albicans v47a): 16 µM | MFC (C. krusei 225/2): 32 µM | MIC (C. krusei 225/2): 32 µM | MFC (C. albicans ATCC 10231): 32 µM | MIC (C. albicans ATCC 10231): 16 µM | MFC (C. tropicalis v13a4/2): 16 µM | MIC (C. tropicalis v13a4/2): 16 µM | MFC (C. glabrata 252/2): 16 µM | MIC (C. glabrata 252/2): 16 µM | MFC (C. albicans ATCC 18804; ATCC 18804, 24 h): >32 µM | MIC (C. albicans ATCC 18804; ATCC 18804, 24 h): 32 µM | Random [1]: 28.9% and 31.2% and 20.3%

Source: PMC11432624
